The target of one assay is T1, SGK1 (Homo sapiens, UniProt O00141).
T1 sequence (O00141 1-431): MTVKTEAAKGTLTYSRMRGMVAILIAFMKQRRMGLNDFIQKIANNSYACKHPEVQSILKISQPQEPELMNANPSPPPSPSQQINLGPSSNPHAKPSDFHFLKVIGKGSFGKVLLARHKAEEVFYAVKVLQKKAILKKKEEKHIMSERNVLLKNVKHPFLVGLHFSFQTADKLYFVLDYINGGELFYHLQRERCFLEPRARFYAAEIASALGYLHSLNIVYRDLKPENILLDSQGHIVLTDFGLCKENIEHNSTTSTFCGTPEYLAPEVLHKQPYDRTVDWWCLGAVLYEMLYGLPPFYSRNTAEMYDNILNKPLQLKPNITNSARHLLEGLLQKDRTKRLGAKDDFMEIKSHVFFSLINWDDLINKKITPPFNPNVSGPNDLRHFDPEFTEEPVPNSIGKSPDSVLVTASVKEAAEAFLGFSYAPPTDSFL
In words: KINOMEscan competitive binding at […]. The settings on record: read-out: % binding remaining at 10 μM.

The target in another assay is PIP5K1C (Homo sapiens, UniProt O60331). In words: microfluidic mobility shift assay with fluorescein-PI. The assay is classed as biochemical.
PIP5K1C, sequence (O60331 whole entry): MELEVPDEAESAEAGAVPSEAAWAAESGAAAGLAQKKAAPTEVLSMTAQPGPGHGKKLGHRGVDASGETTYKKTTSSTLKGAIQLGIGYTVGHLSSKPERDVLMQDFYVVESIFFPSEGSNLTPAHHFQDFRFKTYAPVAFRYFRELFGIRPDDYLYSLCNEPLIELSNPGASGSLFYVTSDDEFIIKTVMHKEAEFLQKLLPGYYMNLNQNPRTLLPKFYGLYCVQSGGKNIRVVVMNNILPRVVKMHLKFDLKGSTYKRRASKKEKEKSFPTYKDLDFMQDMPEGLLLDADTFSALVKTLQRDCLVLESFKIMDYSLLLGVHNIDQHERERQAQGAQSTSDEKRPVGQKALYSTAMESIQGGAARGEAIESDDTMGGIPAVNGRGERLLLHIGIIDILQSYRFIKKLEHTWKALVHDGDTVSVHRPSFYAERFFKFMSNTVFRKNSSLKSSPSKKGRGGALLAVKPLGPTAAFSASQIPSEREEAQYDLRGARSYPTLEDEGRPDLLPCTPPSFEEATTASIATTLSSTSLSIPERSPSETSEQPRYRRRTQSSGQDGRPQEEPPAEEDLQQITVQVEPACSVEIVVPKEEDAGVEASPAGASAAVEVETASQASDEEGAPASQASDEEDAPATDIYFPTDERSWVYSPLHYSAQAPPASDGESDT
The target of assay [1] is T2, PIP4K2C (Phosphatidylinositol-5-phosphate 4-kinase, type II, gamma) (Homo sapiens, UniProt Q8TBX8).
T2 sequence (Q8TBX8 2-421): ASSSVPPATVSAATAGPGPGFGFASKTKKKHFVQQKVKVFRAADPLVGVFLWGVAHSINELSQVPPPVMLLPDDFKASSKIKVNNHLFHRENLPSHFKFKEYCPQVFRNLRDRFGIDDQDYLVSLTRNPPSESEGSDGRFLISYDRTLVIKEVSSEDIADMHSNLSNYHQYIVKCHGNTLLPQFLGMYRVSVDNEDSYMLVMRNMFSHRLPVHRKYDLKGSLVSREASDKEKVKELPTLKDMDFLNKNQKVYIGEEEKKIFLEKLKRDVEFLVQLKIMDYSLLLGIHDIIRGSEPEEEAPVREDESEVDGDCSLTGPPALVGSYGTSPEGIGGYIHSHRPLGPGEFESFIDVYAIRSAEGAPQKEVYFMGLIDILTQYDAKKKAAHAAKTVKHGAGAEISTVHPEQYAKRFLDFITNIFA
In words: KINOMEscan competitive binding assay, dose-response.

For `NC(=O)c1nc(Nc2ccccc2)sc1NC(=O)C1CCCCC1` [UNC3230, 5-(cyclohexanecarboxamido)-2-(phenylamino)thiazole-4-carboxamide], on SGK1, the remaining binding at 10 µM was determined as 8%. The IC50 on PIP5K1C is around 41 nM. In addition, the dissociation constant (Kd) in assay [1] was below 200 nM.

The record behind these values is PMC4074510 (Neuron, 2014).
